Source: patent US9802901B2, “Antibacterial 2H-indazole derivatives” (priority 2013, dated 2017)
≈ marks a conversion by molar mass, not a printed value.

Assays:
Assay in all cases: Bacterial growth minimal inhibitory concentration (broth microdilution, CLSI M7-A7)
E. coli ATCC25922 = type: cell-based, Escherichia coli; settings: cation-adjusted Mueller-Hinton Broth, microdilution, quinolone-sensitive strain; for MIC: Escherichia coli, ATCC25922, read-out: MIC for E. coli ATCC25922
Method in brief: (§1)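 Broth microdilution in cation-adjusted Mueller-Hinton Broth per CLSI M7-A7; MICs reported in mg/L. K. pneumoniae A-651 and A. baumannii T6474 are multiply resistant, quinolone-resistant strains; E. coli ATCC25922 and P. aeruginosa ATCC27853 are quinolone-sensitive.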

P. aeruginosa ATCC27853 = type: cell-based, Pseudomonas aeruginosa; settings: cation-adjusted Mueller-Hinton Broth, microdilution, quinolone-sensitive strain; for MIC: Pseudomonas aeruginosa, ATCC27853, read-out: MIC for P. aeruginosa ATCC27853
Method in brief: as §1

[1] = tested on: Acinetobacter baumannii T6474; type: cell-based; settings: cation-adjusted Mueller-Hinton Broth, microdilution, multiply-resistant (quinolone-resistant) strain; for MIC: Acinetobacter baumannii, T6474, read-out: MIC for A. Baumannii T6474
Method in brief: as §1

K. pneumoniae A-651 = type: cell-based, Klebsiella pneumoniae; settings: cation-adjusted Mueller-Hinton Broth, microdilution, multiply-resistant (quinolone-resistant) strain; for MIC: Klebsiella pneumoniae, A651, read-out: MIC for K. Pneumoniae A-651
Method in brief: as §1

| SMILES | MIC (E. coli ATCC25922) | MIC (P. aeruginosa ATCC27853) | MIC [1] | MIC (K. pneumoniae A-651) | MIC for E. coli ATCC25922 (E. coli ATCC25922) | MIC for P. aeruginosa ATCC27853 (P. aeruginosa ATCC27853) | MIC for A. Baumannii T6474 [1] | MIC for K. Pneumoniae A-651 (K. pneumoniae A-651) |
| --- | --- | --- | --- | --- | --- | --- | --- | --- |
| CC(C)(N)C(=O)N1CC(C#CC#Cc2ccc3nn(CC[C@](C)(C(=O)NO)S(C)(=O)=O)cc3c2)C1 [Example 85, (R)-4-(5-((1-(2-amino-2-methylpropanoyl)azetidin-3-yl)buta-1,3-diyn-1-yl)-2H-indazol-2-yl)-N-hydroxy-2-methyl-2-(methylsulfonyl)butanamide] | 4 µg/mL (≈ 8.01 µM) | 2 µg/mL (≈ 4 µM) | > 32 µg/mL | 8 µg/mL (≈ 16 µM) |  |  |  |  |
| C[C@@](CCn1cc2cc(C#Cc3ccc([C@@H]4C[C@H]4CO)cc3)ccc2n1)(C(=O)NO)S(C)(=O)=O [Example 41, (R)—N-hydroxy-4-(5-((4-((1R,2R)-2-(hydroxymethyl)cyclopropyl)phenyl)ethynyl)-2H-indazol-2-yl)-2-methyl-2-(methylsulfonyl)butanamide] | 0.125 µg/mL (≈ 0.26 µM) | 1 µg/mL (≈ 2.08 µM) | 0.125 µg/mL (≈ 0.26 µM) | 0.063 µg/mL (≈ 0.131 µM) |  |  |  |  |
| C[C@@](CCn1cc2cc(C#Cc3ccc(N)cc3)ccc2n1)(C(=O)NO)S(C)(=O)=O [Example 19, (R)-4-[5-(4-amino-phenylethynyl)-indazol-2-yl]-N-hydroxy-2-methylsulfonyl-2-methyl-butanamide] | 0.063 µg/mL (≈ 0.148 µM) | 2 µg/mL (≈ 4.69 µM) | 0.5 µg/mL (≈ 1.17 µM) | 0.125 µg/mL (≈ 0.293 µM) |  |  |  |  |
| CC(CCn1cc2cc(C#Cc3ccc(C4(O)COC4)cc3)c(F)cc2n1)(C(=O)NO)S(C)(=O)=O (stereo not drawn) [Example 40, 4-(6-fluoro-5-((4-(3-hydroxyoxetan-3-yl)phenyl)ethynyl)-2H-indazol-2-yl)-N-hydroxy-2-methyl-2-(methylsulfonyl)butanamide] | 0.125 µg/mL (≈ 0.249 µM) | 1 µg/mL (≈ 1.99 µM) | 1 µg/mL (≈ 1.99 µM) | 0.25 µg/mL (≈ 0.498 µM) |  |  |  |  |
| C[C@@](CCn1cc2cc(C#CC#C[C@@H]3C[C@@H](O)[C@@H](O)C3)ccc2n1)(C(=O)NO)S(C)(=O)=O [Example 64, (R)-4-(5-(((1S,3R,4S)-3,4-dihydroxycyclopentyl)buta-1,3-diyn-1-yl)-2H-indazol-2-yl)-N-hydroxy-2-methyl-2-(methylsulfonyl)butanamide] |  |  |  |  | 0.125 µg/mL | 0.25 µg/mL | 4 µg/mL | 0.5 µg/mL |
| C[C@@](CCn1cc2cc(C#Cc3ccc(C4(CO)COC4)cc3)ccc2n1)(C(=O)NO)S(C)(=O)=O [Example 43, (R)—N-hydroxy-4-(5-((4-(3-(hydroxymethyl)oxetan-3-yl)phenyl)ethynyl)-2H-indazol-2-yl)-2-methyl-2-(methylsulfonyl)butanamide] | 1 µg/mL (≈ 2.01 µM) | 2 µg/mL (≈ 4.02 µM) | 2 µg/mL (≈ 4.02 µM) | 1 µg/mL (≈ 2.01 µM) |  |  |  |  |
| C[C@]1(CO)C[C@@H]1C#CC#Cc1ccc2nn(CC[C@](C)(C(=O)NO)S(C)(=O)=O)cc2c1 [Example 69] |  |  |  |  | ≦0.063 mg/L | 0.25 µg/mL | 2 µg/mL | 0.125 µg/mL |
| C[C@@](CCn1cc2cc(C#Cc3ccc(CO)c(F)c3)ccc2n1)(C(=O)NO)S(C)(=O)=O [Example 22, (R)-4-[5-(3-fluoro-4-hydroxymethyl-phenylethynyl)-indazol-2-yl]-N-hydroxy-2-methylsulfonyl-2-methyl-butanamide] | 0.125 µg/mL (≈ 0.272 µM) | 2 µg/mL (≈ 4.35 µM) | 1 µg/mL (≈ 2.18 µM) | 0.5 µg/mL (≈ 1.09 µM) |  |  |  |  |
| C[C@@](CCn1cc2cc(-c3ccc(NC(=O)CO)cc3)ccc2n1)(C(=O)NO)S(C)(=O)=O [Example 49, (R)—N-hydroxy-4-(5-(4-(2-hydroxyacetamido)phenyl)-2H-indazol-2-yl)-2-methyl-2-(methylsulfonyl)butanamide] | 4 µg/mL (≈ 8.69 µM) | 4 µg/mL (≈ 8.69 µM) | > 32 µg/mL | 4 µg/mL (≈ 8.69 µM) |  |  |  |  |
| C[C@@](CCn1cc2cc(C#CC#CCC3(O)COC3)ccc2n1)(C(=O)NO)S(C)(=O)=O [Example 80, (R)—N-hydroxy-4-(5-(5-(3-hydroxyoxetan-3-yl)penta-1,3-diyn-1-yl)-2H-indazol-2-yl)-2-methyl-2-(methylsulfonyl)butanamide] | 0.5 µg/mL (≈ 1.12 µM) | 1 µg/mL (≈ 2.24 µM) | 32 µg/mL (≈ 71.8 µM) | 1 µg/mL (≈ 2.24 µM) |  |  |  |  |
| C[C@@](CCn1cc2cc(C#Cc3ccc(CCO)cc3)ccc2n1)(C(=O)NO)S(C)(=O)=O [Example 25, (R)—N-hydroxy-4-{5-[4-(2-hydroxy-ethyl)-phenylethynyl]-indazol-2-yl}-2-methylsulfonyl-2-methyl-butanamide] | 0.063 µg/mL (≈ 0.138 µM) | 0.5 µg/mL (≈ 1.1 µM) | 0.5 µg/mL (≈ 1.1 µM) | 0.063 µg/mL (≈ 0.138 µM) |  |  |  |  |
| C[C@@](CCn1cc2cc(C#Cc3ccc([C@H](O)CO)cc3)ccc2n1)(C(=O)NO)S(C)(=O)=O [Example 51, (R)-4-(5-((4-((S)-1,2-dihydroxyethyl)phenyl)ethynyl)-2H-indazol-2-yl)-N-hydroxy-2-methyl-2-(methylsulfonyl)butanamide] | 1 µg/mL (≈ 2.12 µM) | 0.5 µg/mL (≈ 1.06 µM) | 1 µg/mL (≈ 2.12 µM) | 0.5 µg/mL (≈ 1.06 µM) |  |  |  |  |
| C[C@@]1(C#CC#Cc2ccc3nn(CC[C@](C)(C(=O)NO)S(C)(=O)=O)cc3c2)C[C@H]1CO [Example 67, (R)—N-hydroxy-4-(5-(((1R,2R)-2-(hydroxymethyl)-1-methylcyclopropyl)buta-1,3-diyn-1-yl)-2H-indazol-2-yl)-2-methyl-2-(methylsulfonyl)butanamide] | 0.125 µg/mL (≈ 0.282 µM) | 0.25 µg/mL (≈ 0.564 µM) | 32 µg/mL (≈ 72.1 µM) | 0.125 µg/mL (≈ 0.282 µM) |  |  |  |  |
| C[C@@](CCn1cc2cc(-c3ccc(C#C[C@H]4C[C@@H]4CO)cc3)ccc2n1)(C(=O)NO)S(C)(=O)=O (relative stereo) [Example 60, (R)—N-hydroxy-4-(5-(4-(((1S*,2S*)-2-(hydroxymethyl)cyclopropyl)ethynyl)phenyl)-2H-indazol-2-yl)-2-methyl-2-(methylsulfonyl)butanamide] | ≤ 0.063 µg/mL | 0.5 µg/mL (≈ 1.04 µM) | ≤ 0.063 µg/mL | 0.125 µg/mL (≈ 0.26 µM) |  |  |  |  |
| COCCOc1ccc(-c2ccc3nn(CC[C@](C)(C(=O)NO)S(C)(=O)=O)cc3c2)cc1 [Example 52, (R)—N-hydroxy-4-(5-(4-(2-methoxyethoxy)phenyl)-2H-indazol-2-yl)-2-methyl-2-(methylsulfonyl)butanamide] | 0.125 µg/mL (≈ 0.271 µM) | 2 µg/mL (≈ 4.33 µM) | 1 µg/mL (≈ 2.17 µM) | 0.5 µg/mL (≈ 1.08 µM) |  |  |  |  |
| CC(CCn1cc2cc(-c3ccc(OCCCN4CCOCC4)cc3)ccc2n1)(C(=O)NO)S(C)(=O)=O.O=CO (racemic) [RE1, (RS)—N-hydroxy-2-methylsulfonyl-2-methyl-4-{5-[4-(3-morpholin-4-yl-propoxy)-phenyl]-indazol-2-yl}-butanamide formic acid salt] | 0.5 µg/mL | 4 µg/mL | 4 µg/mL | 1 µg/mL |  |  |  |  |
| C[C@@](CCn1cc2c(F)c(C#CC#C[C@H]3C[C@@H]3CO)ccc2n1)(C(=O)NO)S(C)(=O)=O (relative stereo) [Example 18, (R)-4-{4-fluoro-5-[4-((1S*,2S*)-2-hydroxymethyl-cyclopropyl)-buta-1,3-diynyl]-indazol-2-yl}-N-hydroxy-2-methylsulfonyl-2-methyl-butanamide] | 0.125 µg/mL (≈ 0.279 µM) | 0.5 µg/mL (≈ 1.12 µM) | 4 µg/mL (≈ 8.94 µM) | 0.125 µg/mL (≈ 0.279 µM) |  |  |  |  |
| C[C@@](CCn1cc2cc(C#Cc3ccc(OCCO)cc3)ccc2n1)(C(=O)NO)S(C)(=O)=O [Example 44, (R)—N-hydroxy-4-(5-((4-(2-hydroxyethoxy)phenyl)ethynyl)-2H-indazol-2-yl)-2-methyl-2-(methylsulfonyl)butanamide] | 0.125 µg/mL (≈ 0.265 µM) | 1 µg/mL (≈ 2.12 µM) | 0.25 µg/mL (≈ 0.53 µM) | 0.25 µg/mL (≈ 0.53 µM) |  |  |  |  |
